According to ChEMBL document CHEMBL5634151, “Anti-adipogenic action of a novel oxazole derivative through activation of AMPK pathway” (Eur J Med Chem, 2023):
Active and inactive are the calls of the source. The calls are words filed in the database; no cut-off is given here.

Experiments:
3T3-L1 [1] = test: Cytotoxicity against mouse 3T3-L1 pre-adipocyte cells assessed as reduction in cell viability >20 uM incubated for 48 hrs by MTT assay; assay type: toxicity, cell-based; settings: 3t3-l1, 48 h
3T3-L1 [2] = test: Cytotoxicity against mouse 3T3-L1 pre-adipocyte cells assessed as reduction in cell viability at 20 uM incubated for 48 hrs by MTT assay; assay type: toxicity, cell-based; settings: 3t3-l1, 48 h
3T3-L1 [3] = test: Anti-adipogenic activity in MDI-cocktail differentiated mouse 3T3-L1 pre-adipocyte cells assessed as inhibition of adipogenesis at 20 uM by Oil Red O staining based microscopic analysis relative to control; assay type: functional
3T3-L1 [4] = test: Anti-adipogenic activity in MDI-cocktail differentiated mouse 3T3-L1 pre-adipocyte cells assessed as inhibition of adipogenesis by Oil Red O staining based microscopic analysis; assay type: functional, cell-based
3T3-L1 [5] = test: Anti-adipogenic activity in MDI-cocktail differentiated mouse 3T3-L1 pre-adipocyte cells assessed as inhibition of adipogenesis at 30 uM by Oil Red O staining based microscopic analysis; assay type: functional, cell-based

| Compound | Activity (3T3-L1 [1]) | Activity (3T3-L1 [2]) | other results |
| --- | --- | --- | --- |
| COc1ccc(-c2cnc(-c3ccc[n+](Cc4ccc(F)cc4)c3)o2)cc1.[Br-] | Toxic | – | – |
| Fc1ccc(C[n+]2cccc(-c3ncc(-c4ccccc4)o3)c2)cc1.[Br-] | Toxic | – | – |
| CC(C)=CCC/C(C)=C\C[n+]1cccc(-c2ncc(-c3ccc(Cl)cc3)o2)c1.[Br-] | Toxic | Toxic | – |
| Br.Cc1ccc(-c2cnc(-c3ccc[n+](Cc4ccc([N+](=O)[O-])cc4)c3)o2)cc1 | Toxic | – | – |
| FC(F)(F)c1ccc(C[n+]2cccc(-c3ncc(-c4ccccc4)o3)c2)cc1.[Br-] | Toxic | – | – |
| Cc1ccc(-c2cnc(-c3ccc[n+](Cc4ccc(F)cc4)c3)o2)cc1.[Br-] | Toxic | – | – |
| COc1ccc(-c2cnc(-c3ccc[n+](Cc4cccc(C)c4)c3)o2)cc1.[Br-] | Toxic | – | – |
| FC(F)(F)c1ccc(C[n+]2cccc(-c3ncc(-c4ccc(Cl)cc4)o3)c2)cc1.[Br-] | Toxic | – | – |
| Clc1ccc(C[n+]2cccc(-c3ncc(-c4ccc(Cl)cc4)o3)c2)cc1.[Br-] | Toxic | – | – |
| Cc1cccc(C[n+]2cccc(-c3ncc(-c4ccccc4)o3)c2)c1.[Br-] | Toxic | – | – |
| COc1ccc(-c2cnc(-c3ccc[n+](Cc4ccc(Cl)cc4)c3)o2)cc1.[Br-] | Toxic | – | – |
| Br.COc1ccc(-c2cnc(-c3ccc[n+](Cc4ccc([N+](=O)[O-])cc4)c3)o2)cc1 | Toxic | – | – |
| COc1ccc(-c2cnc(-c3ccc[n+](C/C=C(/C)CCC=C(C)C)c3)o2)cc1.[Br-] | Toxic | Toxic | – |
| COc1ccc(-c2cnc(-c3ccc[n+](Cc4ccc(C(F)(F)F)cc4)c3)o2)cc1.[Br-] | Toxic | – | – |
| Clc1ccc(-c2cnc(-c3ccc[n+](Cc4ccc(Cl)c(Cl)c4)c3)o2)cc1.[Br-] | Toxic | Toxic | – |
| Cc1cccc(C[n+]2cccc(-c3ncc(-c4ccc(Cl)cc4)o3)c2)c1.[Br-] | Toxic | Non-Toxic | inhibition at 20 µM (3T3-L1 [3]): > 70% |

| Compound | Activity (3T3-L1 [1]) | Activity (3T3-L1 [2]) | other results |
| --- | --- | --- | --- |
| Fc1ccc(C[n+]2cccc(-c3ncc(-c4ccc(Cl)cc4)o3)c2)cc1.[Br-] | Toxic | – | – |
| Br.O=[N+]([O-])c1ccc(C[n+]2cccc(-c3ncc(-c4ccc(Cl)cc4)o3)c2)cc1 | Toxic | – | – |
| Cc1ccc(-c2cnc(-c3ccc[n+](Cc4ccc(C(F)(F)F)cc4)c3)o2)cc1.[Br-] | Toxic | Non-Toxic | inhibition at 20 µM (3T3-L1 [3]): > 70% |
| CC(C)=CC[n+]1cccc(-c2ncc(-c3ccc(Cl)cc3)o2)c1.[Br-] | Toxic | – | – |
| Cc1ccc(-c2cnc(-c3ccc[n+](Cc4ccc(Cl)c(Cl)c4)c3)o2)cc1.[Br-] | Toxic | Toxic | – |
| Clc1ccc(C[n+]2cccc(-c3ncc(-c4ccccc4)o3)c2)cc1Cl.[Br-] | Toxic | Non-Toxic | inhibition at 20 µM (3T3-L1 [3]): > 70% |
| Clc1ccc(C[n+]2cccc(-c3ncc(-c4ccccc4)o3)c2)cc1.[Br-] | Toxic | – | – |
| CC(C)=CC[n+]1cccc(-c2ncc(-c3ccccc3)o2)c1.[Br-] | Toxic | – | – |
| CC(C)=CCOc1ccc(-c2cnc(-c3cccnc3)o2)cc1 | – | – | IC50 (3T3-L1 [4]; read-out: IC50): 103 µM; IC50 (3T3-L1 [4]; read-out: pIC50 (converted)): 104 µM; Activity (3T3-L1 [5]): Active |
| CC(C)=CC[n+]1cccc(-c2ncc(-c3ccc(C)cc3)o2)c1.[Br-] | Toxic | Toxic | – |
| COc1ccc(-c2cnc(-c3ccc[n+](Cc4ccc(Cl)c(Cl)c4)c3)o2)cc1.[Br-] | Toxic | Non-Toxic | inhibition at 20 µM (3T3-L1 [3]): > 70% |
| Cc1ccc(-c2cnc(-c3ccc[n+](Cc4ccc(Cl)cc4)c3)o2)cc1.[Br-] | Toxic | – | – |
| CC(C)=CCC/C(C)=C\C[n+]1cccc(-c2ncc(-c3ccc(C)cc3)o2)c1.[Br-] | Toxic | Toxic | – |
| Br.O=[N+]([O-])c1ccc(C[n+]2cccc(-c3ncc(-c4ccccc4)o3)c2)cc1 | Toxic | – | – |
| COc1ccc(-c2cnc(-c3ccc[n+](CC=C(C)C)c3)o2)cc1.[Br-] | Toxic | – | – |
